We go through three molecules from patent US10653756B2, “Identification of CD8+ T cells that are CD161hi and/or IL18R(α)hi and have rapid drug efflux capacity” (FRED HUTCHINSON CANCER RESEARCH CENTER, priority 2008, dated 2020).

Data set [1] relates to CMhi and EMhi CD8+ T cells. The data set is described as follows: Daunorubicin-induced apoptosis of sorted CM and EM subsets, Annexin V/DAPI. The format is cell-based, human. The source says: CMhi and EMhi and their non-effluxing IL-18Rα^lo/neg counterparts (CMlo and EMlo) were isolated using negative immunomagnetic selection of CD8^+ T cells with biotinylated antibodies to non-CD8^+ T cells, followed by surface labeling with fluorochrome-conjugated streptavidin to identify non-CD8^+ T cells, CD95, CD62L and IL-18Rα and sorting on a BD FacsARIA flow sorter. CM and EM CD8^+ T cells were defined as streptavidin^−/CD95^+/CD62L^+ or streptavidin^−/CD95^+/CD62L^−, respectively. CMhi and EMhi were defined by high expression of IL-18Rα. Effluxing and non-effluxing CM and EM subsets were cultured for 44 hours in the presence or absence of daunorubicin (an anthracycline chemotherapeutic agent, effluxed by the ABC-B1 cotransporter, MDR-1), with or without MDR-1 blockade with the peripheral benzodiazepine receptor antagonist, PK11195. Cultures were harvested, washed twice with cold PBS and stained with Annexin V and DAPI before analysis.

Data set [2] concerns CM and EM CD8+ T lymphocytes. The data set is described as follows: Rh123 efflux assay with or without vinblastine, flow cytometry. In kind it is cell-based, human. The conditions noted are these: PBMC loaded with 10 μg/ml Rh123, efflux 30 minutes at 37° C. On the technique in general: A flow cytometer gives signals particle by particle.
Method: PBMC were separated from fresh peripheral blood by density gradient centrifugation, washed in RPMI 1640/10% bovine serum albumin (herein known as efflux buffer) and resuspended at 1×10^6/ml in ice cold efflux buffer with 10 μg/ml Rh123. PBMC were incubated for 30 minutes on ice before washing three times in ice cold efflux buffer and resuspending in pre-warmed efflux buffer, with or without vinblastine, for 30 minutes at 37° C. At 30 minutes, PBMC were washed once in ice cold PBS/0.2% BSA (FACS buffer) and labeled with antibodies to CD4, CD16, TCRγδ, Vα24, CD3, CD8α, CD95, CD62L, CD161 and IL-18Rα for 20 minutes on ice. After washing in ice cold FACS buffer, samples were analyzed on a BD FacsARIA flow cytometer.
CM and EM subsets were identified as CD62L^+ or CD62L^− events, respectively, in the CD4^−/CD16^−/TCRγδ^−/Vα24^−/CD3^+/CD8^+/CD95^+ population. Rh123 fluorescence was identified with appropriate compensation and a 530/30 emission filter after laser excitation at 488 nm. Rh123-effluxing events were defined as those with fluorescence lower than the mean fluorescence intensity identified after culture in the presence of vinblastine efflux blockade.
Data set [3] concerns the target MDR-1 (Homo sapiens, UniProt P08183). The note with it: daunorubicin loaded at 2.5 μM, efflux 1 hour at 37° C.; vinblastine 25 μM; PK11195 and cyclosporine A data not shown.

MDR-1, sequence (P08183 whole entry): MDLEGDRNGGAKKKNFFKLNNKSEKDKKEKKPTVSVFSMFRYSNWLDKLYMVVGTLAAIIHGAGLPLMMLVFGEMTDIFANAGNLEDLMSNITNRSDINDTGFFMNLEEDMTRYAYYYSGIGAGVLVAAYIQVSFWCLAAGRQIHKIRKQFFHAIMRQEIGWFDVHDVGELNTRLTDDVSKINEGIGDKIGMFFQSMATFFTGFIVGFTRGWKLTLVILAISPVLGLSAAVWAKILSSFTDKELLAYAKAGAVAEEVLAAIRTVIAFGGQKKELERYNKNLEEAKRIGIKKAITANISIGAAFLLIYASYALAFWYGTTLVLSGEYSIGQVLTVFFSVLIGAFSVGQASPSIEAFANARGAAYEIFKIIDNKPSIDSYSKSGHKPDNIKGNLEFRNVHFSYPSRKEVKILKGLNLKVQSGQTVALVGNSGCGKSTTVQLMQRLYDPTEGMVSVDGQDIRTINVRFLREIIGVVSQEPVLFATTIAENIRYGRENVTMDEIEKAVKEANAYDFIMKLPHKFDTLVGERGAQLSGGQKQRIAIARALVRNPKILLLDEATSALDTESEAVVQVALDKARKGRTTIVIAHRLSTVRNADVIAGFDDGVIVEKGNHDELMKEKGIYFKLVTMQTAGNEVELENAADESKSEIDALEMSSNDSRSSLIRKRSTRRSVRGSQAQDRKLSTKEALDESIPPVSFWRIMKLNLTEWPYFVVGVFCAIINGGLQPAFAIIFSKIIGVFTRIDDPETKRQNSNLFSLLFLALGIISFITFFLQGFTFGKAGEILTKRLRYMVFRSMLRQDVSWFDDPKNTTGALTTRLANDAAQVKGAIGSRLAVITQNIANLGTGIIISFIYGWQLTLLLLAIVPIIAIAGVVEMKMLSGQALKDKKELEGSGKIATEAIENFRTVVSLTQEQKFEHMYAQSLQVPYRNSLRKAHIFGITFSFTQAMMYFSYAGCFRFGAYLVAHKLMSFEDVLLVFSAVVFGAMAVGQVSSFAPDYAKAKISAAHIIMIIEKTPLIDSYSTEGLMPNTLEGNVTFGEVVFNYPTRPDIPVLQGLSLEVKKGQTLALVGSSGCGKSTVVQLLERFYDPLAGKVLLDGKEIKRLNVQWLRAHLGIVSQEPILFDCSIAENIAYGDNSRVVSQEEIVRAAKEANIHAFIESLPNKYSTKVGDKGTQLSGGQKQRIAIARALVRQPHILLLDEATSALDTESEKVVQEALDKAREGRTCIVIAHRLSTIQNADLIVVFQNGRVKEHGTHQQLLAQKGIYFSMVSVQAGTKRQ

On to `COc1cccc2c1C(=O)c1c(O)c3c(c(O)c1C2=O)C[C@@](O)(C(C)=O)C[C@@H]3O[C@H]1C[C@H](N)[C@H](O)[C@H](C)O1` [daunorubicin], for which, in data set [1] (daunorubicin 0.1 uM, 44 hours culture), the “Apoptosis of CMhi and EMhi induced by culture with daunorubicin” value is reported as “resistant to apoptosis”.

For the molecule `CC[C@]1(O)C[C@@H]2CN(CCc3c([nH]c4ccccc34)[C@@](C(=O)OC)(c3cc4c(cc3OC)N(C)[C@H]3[C@@](O)(C(=O)OC)[C@H](OC(C)=O)[C@]5(CC)C=CCN6CC[C@]43[C@@H]65)C2)C1` [vinblastine], the “Rh123 efflux in the presence of vinblastine” value in data set [2] was “blocked”. Further, the “Inhibition of daunorubicin efflux from CMhi and EMhi” value in data set [3] is “inhibition of efflux”.

With `CCC(C)N(C)C(=O)c1cc2ccccc2c(-c2ccccc2Cl)n1` (centres unmarked) [PK11195], the “Viability of subsets cultured with PK11195 alone” value in data set [1] (PK11195 without daunorubicin, 44 hours culture) is listed as “does not impair viability”. For the same molecule, in data set [1] (daunorubicin with PK11195, 44 hours culture), the “Cell death of CMhi and EMhi on MDR-1 inhibition during daunorubicin culture” value was “increased cell death”.
